{"source": "paper PMC9271792", "about": "(Frontiers in Endocrinology, 2022)", "key": {"[1]": {"test_system": "mitogenic signalling", "conditions": "ref [20], cited from earlier work"}, "[2]": {"test_system": "IGF-1R", "conditions": "cited from earlier work"}, "[3]": {"test_system": "IR", "conditions": "cited from earlier work", "source_text": "This is similar to the poorly mitogenic S597 peptide, which also promoted slowe ..."}, "[4]": {"test_system": "IR", "conditions": "compared to insulin; ref [20], [21]; cited from earlier work"}, "[5]": {"test_system": "IR", "conditions": "ref [20]; cited from earlier work"}, "[6]": {"test_system": "Akt / GSK-3β / S6 phosphorylation in L6 IR-A cells", "assay": "Western blot time-course, PI3K/Akt pathway, L6 IR-A", "assay_type": "cell-based, rat cells; human IR-A", "conditions": "10 nM; for time to optimal phosphorylation of Akt (Ser473, Thr308) and GSK-3β: maximal up to t = 30 min", "quoted_text": "(§2) R/^-IR-B (80,000 cells/well) or L6 IR-A cells (240,000 cells/well) were seeded in 6-well plates and allowed to grow to confluence (~ 48 hours). Prior to stimulation, cells were serum starved in SFM/1% BSA for 4 h. […] Lysates were scraped from the well, spun at 13,000 rpm for 3 min at 0°C to remove cell debris and stored at -80°C. Lysate protein concentrations were quantified using Bio-Rad DC™ Protein Assay and 20μg of each sample was separated in 10% glycine gels under reducing conditions. Transferred blots were blocked for 1 h at room temperature in TBST containing 3% BSA and probed with primary antibodies (Pathscan Antibody, pAkt(Thr308), pGSK(Ser9), pAS160(Thr642)) in blocking solution (TBST containing 3% BSA) overnight at 4°C. All blots were also probed with anti-β-tubulin as a loading control. Blots were washed six times for 5 min each in TBST then probed with either HRP-conjugated (dose-response) or fluorophore-conjugated (time-course) secondary antibodies for 1 hour at room temperature. The washing was then repeated.\n(§3) Dose response blots were developed in ECL reagent according to manufacturer’s instruction and imaged in Fujiflim LAS-4000 Luminescent Image Analyzer. Time course blots were imaged with an Odyssey® CLx Imaging System. All blots were performed at least three times. All data were analysed with LI-COR Image Studio™ software and each band intensity was normalized to tubulin of its respective lane."}, "[7]": {"test_system": "IR-A", "assay": "IR-A receptor internalization", "assay_type": "cell-based, human", "conditions": "10 nM; for IR-A internalization (in words): 2 hours post-stimulation; for IR-A remaining on the cell surface: within 2 h, % of surface/total receptor normalised to SFM t = 0", "procedure": "All data are the mean ± S.E.M. n = at least 3 independent experiments. Error bars are shown when greater than the size of the symbols.\n(§1) Assays were performed in triplicate in at least three independent experiments."}, "[8]": {"molecular_target": "T1, IGF-1R (Homo sapiens, UniProt P08069)", "T1 construct": "expressed in transfected cells; host or cells: P6 cells (BALB/c3T3 mouse fibroblasts overexpressing human IGF-1R); Triton X-100 lysate captured on anti-IGF-1R antibody 24-31", "assay": "Kinase receptor activation assay (KIRA), IGF-1R", "assay_type": "cell-based", "conditions": "10 min stimulation, P6 cells"}, "[9]": {"test_system": "ERK 1/2 / p90RSK phosphorylation in L6 IR-A cells", "assay": "Western blot time-course, MAPK pathway, L6 IR-A", "assay_type": "cell-based, rat cells; human IR-A", "conditions": "10 nM, then reducing between t = 10 – 30 min", "quoted_text": "as §2, §3"}, "[10]": {"molecular_target": "T2, IR isoform B (IR-B) (Homo sapiens, UniProt P06213)", "T2 construct": "expressed in transfected cells; host or cells: R-IR-B cells (IGF-1R knockout mouse embryonic fibroblasts over-expressing human IR-B); Triton X-100 lysate captured on anti-IR antibody 83-7", "T2 sequence (P06213 28-758 limits assumed)": "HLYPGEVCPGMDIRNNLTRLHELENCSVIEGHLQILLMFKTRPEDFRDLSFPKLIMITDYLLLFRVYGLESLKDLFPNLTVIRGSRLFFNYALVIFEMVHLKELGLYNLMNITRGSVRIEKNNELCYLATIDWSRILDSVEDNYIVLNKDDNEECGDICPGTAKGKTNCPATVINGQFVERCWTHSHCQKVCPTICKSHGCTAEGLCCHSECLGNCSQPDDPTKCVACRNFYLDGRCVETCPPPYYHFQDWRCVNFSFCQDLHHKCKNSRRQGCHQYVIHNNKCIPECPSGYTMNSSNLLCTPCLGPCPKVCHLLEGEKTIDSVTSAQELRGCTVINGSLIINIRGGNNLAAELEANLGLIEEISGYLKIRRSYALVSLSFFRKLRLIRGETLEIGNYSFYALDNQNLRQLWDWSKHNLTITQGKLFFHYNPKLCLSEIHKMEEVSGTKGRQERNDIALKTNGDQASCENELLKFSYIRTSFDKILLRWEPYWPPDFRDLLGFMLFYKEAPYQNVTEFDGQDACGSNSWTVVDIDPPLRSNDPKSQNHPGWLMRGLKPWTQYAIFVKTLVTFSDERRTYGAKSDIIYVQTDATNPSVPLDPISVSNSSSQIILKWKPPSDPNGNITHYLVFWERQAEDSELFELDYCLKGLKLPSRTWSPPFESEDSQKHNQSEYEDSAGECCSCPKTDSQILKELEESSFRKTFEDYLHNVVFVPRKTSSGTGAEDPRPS", "T2 sequence (P06213 763-1382 partner limits assumed)": "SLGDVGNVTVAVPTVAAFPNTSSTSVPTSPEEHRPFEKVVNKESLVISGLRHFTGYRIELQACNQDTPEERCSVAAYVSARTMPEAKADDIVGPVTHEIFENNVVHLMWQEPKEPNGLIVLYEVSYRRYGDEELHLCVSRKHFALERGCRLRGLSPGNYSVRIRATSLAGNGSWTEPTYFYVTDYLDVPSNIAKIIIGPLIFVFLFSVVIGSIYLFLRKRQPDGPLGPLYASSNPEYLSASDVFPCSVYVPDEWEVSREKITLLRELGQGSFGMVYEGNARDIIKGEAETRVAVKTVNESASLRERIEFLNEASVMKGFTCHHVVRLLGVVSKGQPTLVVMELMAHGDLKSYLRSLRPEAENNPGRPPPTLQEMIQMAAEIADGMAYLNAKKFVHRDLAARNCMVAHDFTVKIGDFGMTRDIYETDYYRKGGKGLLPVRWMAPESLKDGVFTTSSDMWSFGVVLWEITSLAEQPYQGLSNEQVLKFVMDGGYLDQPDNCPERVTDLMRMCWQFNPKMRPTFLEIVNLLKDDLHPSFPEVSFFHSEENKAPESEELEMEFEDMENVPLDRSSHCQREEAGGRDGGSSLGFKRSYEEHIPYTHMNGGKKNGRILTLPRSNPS", "conditions": "compared to insulin; ref [21]–[23], [32]; cited from earlier work"}, "[11]": {"test_system": "C57BL6 male mice", "assay": "Insulin tolerance test", "assay_type": "in vivo, mouse", "conditions": "0.75 IU/kg ip, chow fed mice, non-fasting, 2 hours post-treatment"}, "[12]": {"test_system": "IR-B", "assay": "Kinase receptor activation assay (KIRA), IR-B", "assay_type": "cell-based, human", "conditions": "10 min stimulation, Eu-PY20 detection"}, "[13]": {"molecular_target": "T1, IGF-1R", "conditions": "% of native insulin; ref [21], [23]; cited from earlier work"}, "[14]": {"test_system": "insulin receptor isoform A (IR-A)", "conditions": "compared to native insulin; ref [21]; cited from earlier work"}, "[15]": {"molecular_target": "T1, IGF-1R", "assay": "Competition binding assay, europium-labelled IGF-I, IGF-1R", "procedure": "Results are expressed as a percentage of binding in the absence of competing ligand (%B/B0). […] All data are the mean ± S.E.M. n = at least 3 independent experiments. Error bars are shown when greater than the size of the symbols.\nHuman IR isoform A, isoform B and IGF-1R were solubilized from R^-IR-A, R^-IR-B and P6 cells, respectively. Briefly, cells were serum starved in serum-free medium (SFM) containing 1% (w/v) BSA for 4 h before lysis in ice-cold lysis buffer (20 mM HEPES, 150 mM NaCl, 1.5mM MgCl2, 10% (v/v) glycerol, 1% (v/v) Triton X-100, 1mM EGTA, and 1 mM phenylmethylsulfonyl fluoride, pH 7.5) for 1 h at 4°C. Lysates were centrifuged for 10 min at 2,200g, and then 100 µL of lysate was added per well to a white Greiner Lumitrac 600 96-well plate (16 h at 4°C) previously coated with anti-IR antibody 83-7 or anti-IGF-1R antibody 24-31 (250 ng/well in bicarbonate buffer, pH 9.2). […] Wells were washed with 20 mM Tris, pH 7.4, 150 mM NaCl (TBS) and 0.1% (v/v) Tween 20 (TBST). Then 100 µl/well DELFIA enhancement solution (PerkinElmer Life Sciences) was added. After 10 min, time-resolved fluorescence was measured using 340-nm excitation and 612-nm emission filters with a BMG Lab Technologies Polarstar fluorometer (Mornington, Australia). Assays were performed in triplicate in at least three independent experiments."}, "[16]": {"test_system": "L6 rat skeletal myoblasts overexpressing human IR-A (L6 IR-A cells)", "assay": "DNA synthesis assay (EdU incorporation)", "assay_type": "cell-based", "conditions": "18 h, equipotent within fold stated", "procedure": "as §1"}, "[17]": {"molecular_target": "T3, IR isoform A (IR-A) (Homo sapiens, UniProt P06213)", "T3 construct": "expressed in transfected cells; host or cells: R-IR-A cells (IGF-1R knockout mouse embryonic fibroblasts over-expressing human IR-A); Triton X-100 lysate captured on anti-IR antibody 83-7", "T3 sequence (P06213 28-1370 isoform P06213-2 limits assumed)": "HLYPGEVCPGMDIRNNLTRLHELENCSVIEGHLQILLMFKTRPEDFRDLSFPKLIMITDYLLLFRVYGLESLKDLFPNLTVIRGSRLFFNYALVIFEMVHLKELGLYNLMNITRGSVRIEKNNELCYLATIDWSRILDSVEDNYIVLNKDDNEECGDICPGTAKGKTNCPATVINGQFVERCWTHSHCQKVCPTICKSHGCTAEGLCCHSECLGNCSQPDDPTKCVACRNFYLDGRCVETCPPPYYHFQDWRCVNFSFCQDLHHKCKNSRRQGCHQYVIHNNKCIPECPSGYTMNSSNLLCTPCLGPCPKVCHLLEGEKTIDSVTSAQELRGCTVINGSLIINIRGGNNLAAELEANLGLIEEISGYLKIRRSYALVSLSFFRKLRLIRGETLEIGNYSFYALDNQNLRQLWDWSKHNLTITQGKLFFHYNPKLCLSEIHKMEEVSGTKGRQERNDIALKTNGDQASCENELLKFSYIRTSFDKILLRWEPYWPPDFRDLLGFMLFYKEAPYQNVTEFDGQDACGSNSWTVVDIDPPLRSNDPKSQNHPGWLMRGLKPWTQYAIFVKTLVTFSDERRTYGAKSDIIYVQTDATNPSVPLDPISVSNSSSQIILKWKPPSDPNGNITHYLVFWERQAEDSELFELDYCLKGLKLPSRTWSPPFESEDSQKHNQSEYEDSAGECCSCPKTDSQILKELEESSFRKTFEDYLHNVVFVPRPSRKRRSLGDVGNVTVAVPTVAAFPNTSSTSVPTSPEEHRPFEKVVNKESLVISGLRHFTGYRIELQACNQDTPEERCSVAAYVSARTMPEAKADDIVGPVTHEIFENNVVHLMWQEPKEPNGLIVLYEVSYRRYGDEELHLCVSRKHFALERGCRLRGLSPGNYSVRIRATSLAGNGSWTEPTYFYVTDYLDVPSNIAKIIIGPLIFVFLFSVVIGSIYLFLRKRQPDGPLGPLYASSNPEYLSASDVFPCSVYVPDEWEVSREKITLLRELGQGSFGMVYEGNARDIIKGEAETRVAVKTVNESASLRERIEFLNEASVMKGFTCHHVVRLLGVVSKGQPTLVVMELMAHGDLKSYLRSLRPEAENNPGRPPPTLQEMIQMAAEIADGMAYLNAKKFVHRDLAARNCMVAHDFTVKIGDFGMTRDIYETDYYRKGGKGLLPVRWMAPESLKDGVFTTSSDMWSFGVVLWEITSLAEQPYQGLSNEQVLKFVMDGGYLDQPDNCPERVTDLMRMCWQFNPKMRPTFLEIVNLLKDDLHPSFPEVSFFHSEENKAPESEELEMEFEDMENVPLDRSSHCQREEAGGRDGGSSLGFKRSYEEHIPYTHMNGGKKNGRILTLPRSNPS", "T3 sequence (P06213 763-1382 partner limits assumed)": "as the sequence (P06213 763-1382 partner limits assumed) above", "conditions": "compared to insulin; ref [21]–[23], [32]; cited from earlier work"}}, "note": "Where two headings read alike, the source gives them in different places."}
{"substance": "HisB10Asp insulin [insulin X10]", "values": [{"measurement": "mitogenic signalling (in words)", "setting": "[1]", "result": "enhanced mitogenic signalling"}, {"measurement": "IGF-1R binding affinity (in words)", "setting": "[2]; compared to insulin, ref [20], [21]", "result": "increased binding affinity for the growth-promoting insulin-like growth factor receptor 1 (IGF-1R)"}, {"measurement": "phosphorylation of IR-A Tyr960, Tyr1146 and Tyr1322 (in words)", "setting": "[3]; compared to insulin, ref [32]", "result": "increased phosphorylation of IR-A Tyr960, Tyr1146 and Tyr1322 compared to insulin"}, {"measurement": "phosphorylation of the IR (in words)", "setting": "[3]; ref [20]", "result": "sustained phosphorylation of the IR"}, {"measurement": "rate of dissociation from the IR (in words)", "setting": "[4]", "result": "reduced rate of dissociation from the IR compared to insulin"}, {"measurement": "receptor internalization (in words)", "setting": "[5]", "result": "increased rate of receptor internalization"}]}
{"substance": "human insulin", "values": [{"measurement": "kinetics of activation of the PI3K/Akt pathway (in words)", "setting": "[6]; 0–30 min, p-Akt Ser473, p-Akt Thr308, p-GSK3β, p-S6", "result": "essentially the same"}, {"measurement": "time to optimal phosphorylation of Akt (Ser473, Thr308) and GSK-3β", "setting": "[6]", "result": "≤ 20", "unit": "s"}, {"measurement": "IR-A internalization (in words)", "setting": "[7]", "result": "rapidly induced receptor internalization post-stimulation (evident within 10 min)"}, {"measurement": "IR-A remaining on the cell surface", "setting": "[7]", "result": 60, "unit": "%"}, {"measurement": "IGF-1R activation (in words)", "setting": "[8]", "result": "equipotent but poorly activated the IGF-1R"}, {"measurement": "time to maximal phosphorylation of ERK1/2 and p90RSK", "setting": "[9]", "result": 10, "unit": "min"}]}
{"substance": "insulin glargine", "values": [{"measurement": "time to optimal phosphorylation of Akt (Ser473, Thr308) and GSK-3β", "setting": "[6]", "result": "≤ 20", "unit": "s"}, {"measurement": "IR-A internalization (in words)", "setting": "[7]", "result": "rapidly induced receptor internalization post-stimulation (evident within 10 min)"}, {"measurement": "IR-A remaining on the cell surface", "setting": "[7]", "result": 60, "unit": "%"}, {"measurement": "IR-B binding, literature range", "setting": "[10]", "result": "50-85%"}, {"measurement": "mitogenic cell signalling (in words)", "setting": "[1]; compared to native insulin, [23]", "result": "equipotent in promoting mitogenic cell signalling"}, {"measurement": "blood glucose lowering (in words)", "setting": "[11]", "result": "no statistical difference"}, {"measurement": "IGF-1R binding affinity (in words)", "setting": "[2]; compared to native insulin, ref [22]", "result": "binds to the IGF-1R with higher affinity"}, {"measurement": "IR-B activation (in words)", "setting": "[12]", "result": "potency similar to native insulin"}, {"measurement": "IGF-1R affinity, literature range", "setting": "[13]", "result": "460–650%"}, {"measurement": "time to maximal phosphorylation of ERK1/2 and p90RSK", "setting": "[9]", "result": 10, "unit": "min"}, {"measurement": "IR-A dissociation kinetics (in words)", "setting": "[14]", "result": "dissociation kinetics do not differ from native insulin"}, {"measurement": "IGF-1R affinity compared to native insulin", "setting": "[15]; % of native insulin", "result": 480, "unit": "%"}, {"measurement": "IC50", "setting": "[15]; competition for europium-labelled IGF-I, solubilized receptor from P6 cells, 16 h at 4°C, mean ± S.E.M., n = 3 or more", "result": "6.71 ± 3.9", "unit": "nM"}, {"measurement": "DNA synthesis, potency difference from native insulin", "setting": "[16]", "result": "≤ 2", "unit": "fold"}, {"measurement": "IR-A binding, literature range", "setting": "[17]", "result": "40-86%"}]}
